Data taken from US7985412B2, “Method of monitoring/controlling thysanoptera” (Keele University, priority 2004, dated 2011).
Where a name gives a salt, the structure may show the parent alone.

Experiments:
[1] = tested on: female Western Flower Thrips; assay: Y-tube olfactometer bioassay; format: in vivo, Frankliniella occidentalis; details: for effect upon female Western Flower Thrips (in words): doses of 1 ng, and 100 ng; for attractant effect (in words): female Western Flower Thrips
Description: Thrips were originally obtained from a commercial glasshouse and then maintained on pot chrysanthemums (Dendranthema x grandiflora (Ramat.) Kitamura) at 25° C. under a repeated cycle consisting of 18 hours of light and 6 hours of dark. The culture on chrysanthemums supplied mixed-age adult females, which were attracted to adult males in olfactometer bioassays, so these were used in the bioassays.
The Y-tube has two branches at an angle of 90° and a stem, which are all 60 mm long with internal diameters of 5 mm. The Y-tube was held horizontal and illuminated from above by four fluorescent tubes (950 lux). It was screened by a 10 cm high matt-black card wall, forming a 280 mm×280 mm square, to minimise any external visual influences. A 50 ml round glass flask with a Drechsel head was inserted in the tube before each branch and a semi-circle of filter paper (Whatman No. 1, diameter 42.5 mm), moistened with water, was placed in each to humidify the air. Connections between tubes are either made with brass swagelock connectors or by inserting narrower tubes into slightly wider tubes. All the glassware and the glass wool were rinsed thoroughly in warm water with Teepol ‘L’ neutral detergent (BDH Laboratory Supplies, Poole), then in distilled water, then in acetone, and left to dry overnight in an oven at 200° C. before each experiment. The connecting Teflon tubing and the swagelock connectors were rinsed thoroughly in warm water with Teepol ‘L’ neutral detergent, then in distilled water, then in hexane, and left to dry overnight in a fume cupboard before each run of an experiment.
Zero-grade clean air from a cylinder (supplied by British Oxygen Corporation, Manchester) was passed through an activated charcoal filter and then along Teflon tubes to two flow meters (Supelco, Sigma-Aldrich, Poole) that regulated the air flow to the two branches of a glass Y-tube. The rate in the two branches was 50 mm s^−1 (59 ml min^−1) and in the stem was 100 mm s^−1 (118 ml min^−1) and were checked with a bubble flow meter.
Adults were placed one at a time in the stem of the Y-tube, by transferring them with a fine paintbrush, and allowed to walk up the Y-tube. A choice was recorded when they first crossed a line 20 mm down either branch from the junction of the “Y”. If a choice was not made within 3 min, it was recorded as “no choice” and excluded from the analysis. Each individual was tested twice to provide two successive choices. The sample flasks, connecting tubing and Y-tube were reversed after every 5 individuals. This reduced possible bias from external influences. Each experiment consisted of 1 to 3 runs on separate days to reduce possible bias from external influences. A total of 25 individuals were tested in each run of an experiment, which lasted about 2 h. Experiments were conducted at 25±1° C.
At the start of each run, 0.2 ml of distilled water was placed on the filter paper in each flask. […] The filter papers were removed and replaced with fresh water and test and control substances every time the equipment was reversed.
It was shown that there was no preference in thrips response by testing mixed-age females (in the absence of a test composition) in the Y-tube olfactometer on 3 separate days. The apparatus was set up as before, but with only water and hexane in each flask. Since the arms of the Y-tube were reversed by rotating the stem by 180° after every five individuals, the difference in the number of choices between left and right and between arm A and arm B could be tested separately. There was no preference to the left or right or for arm A or arm B thus establishing that the apparatus was unbiased.
In each case 25 adult females were tested in 2 or 3 separate runs. The compound was applied in 1 μl hexane.
Example 1 was repeated using each of isobornyl 2-methyl butanoate, isobornyl pivalate and lavandulyl valerate in amounts of 0.1 ng. […]

F. occidentalis = assay: Field trial: catch on blue sticky traps in sweet pepper greenhouses; format: in vivo, Frankliniella occidentalis
Description: The biological activity of neryl (S)-2 methylbutanoate was tested in commercial crops of sweet pepper (var. Habana) grown in greenhouses at Zamora (37°42.945′N, 0°57.720′W) near Torre Pacheco in the Murcia region of Spain. The crops were about 110 cm high, planted in rows 1 m apart, and were naturally infested with a low level of F. occidentalis. Three 2-day long experiments were carried out, alternating between two nearby houses, each with an area of about 6500 m^2.
The compound was released from rubber septa (6.3 mm diameter×10.8 mm long) (100706; Aldrich, UK) that had been preextracted in hexane-dichloromethane and dried in an oven at 50° C. Septa were loaded with solutions of the test compound in hexane or with hexane alone (control). After evaporation of the solvent, the rubber septa were stored in aluminum foil bags. They were placed on traps in the field within 2 hr of preparation.
Blue plastic rectangular takitraps (10×25 cm) (Syngenta Bioline, UK), coated on both surfaces with insect glue, were suspended vertically with the base about 10 cm above crop height, by attaching them to crop support strings with a wooden clothes peg. One rubber septum was stuck to the center of the north-facing side of each trap.
Each experiment was laid out in a randomized complete block design with 20 blocks and one replicate per block. Traps were placed about 3.4 m apart down rows of sweet pepper plants with 16 m between each row of traps. The experiment compared two doses, 30 ng and 30 μg, of neryl (S)-2-methylbutanoate with a control.
Thrips caught on the blue sticky traps were examined under a stereoscopic microscope to identify their sex and to distinguish F. occidentalis from about 2% of the thrips that were other species (Thrips spp., aeolothripids, and phlaeothripids). The data were log10(x+1) transformed and analyzed by two-way ANOVA for females, males, and both sexes combined. Multiple comparisons with the control used Dunnett's multiple comparison test. Statistical analysis was carried out with Minitab 14 (Minitab Inc., Pennsylvania, USA).

[2] = 0.1 ng, filter paper placed in Teflon tube instead of glass flask

## CCC(C)C(=O)OC1CC2CCC1(C)C2(C)C (stereo not shown) [Isobornyl 2-methyl butanoate, isobornyl 2-methyl butanoate]
[1]; [2]
  Preference (%): 72.9%

## CC[C@H](C)C(=O)OC/C=C(/C)CCC=C(C)C [N(S)2MB, neryl (S)-2-methylbutanoate]
F. occidentalis; Both sexes, high dose 30 μg on rubber septum
  Mean catch over 2 days ± SE (N = 20): 22.2 ± 2.0
F. occidentalis; Both sexes, low dose 30 ng on rubber septum
  Mean catch over 2 days ± SE (N = 20): 18.7 ± 1.7 ns
F. occidentalis; Females, high dose 30 μg on rubber septum
  Mean catch over 2 days ± SE (N = 20): 9.1 ± 1.2
F. occidentalis; Females, low dose 30 ng on rubber septum
  Mean catch over 2 days ± SE (N = 20): 6.8 ± 0.7 ns
F. occidentalis; Males, high dose 30 μg on rubber septum
  Mean catch over 2 days ± SE (N = 20): 13.2 ± 1.1
F. occidentalis; Males, low dose 30 ng on rubber septum
  Mean catch over 2 days ± SE (N = 20): 11.9 ± 1.2 ns
F. occidentalis; dose of 30 μg, both sexes attracted
  effect on trap catches (in words): increased trap catches significantly

## CC(=O)OC/C=C(/C)CCC=C(C)C [Neryl Acetate, reference compound]
[1]
  effect upon female Western Flower Thrips (in words): no effect

## CC(C)=CCC/C(C)=C\COC=O [Neryl Formate, reference compound]
[1]
  effect upon female Western Flower Thrips (in words): no effect

## CC(C)(C)C(=O)OC1CC2CCC1(C)C2(C)C (stereo not shown) [isobornyl pivalate]
[1]; [2]
  Preference (%): 61.3%

## CCCCC(=O)OC1CC2CCC1(C)C2(C)C (stereo not shown) [isobornyl valerate]
[1]; 0.002 ng compound in 1 μl hexane, adult females, combined runs
  Preference (%): 64.8%
[1]; 0.02 ng compound in 1 μl hexane, adult females, combined runs
  Preference (%): 73.3%
[1]; 0.1 ng compound in 1 μl hexane, adult females, combined runs
  Preference (%): 76.9%
[1]; 0.2 ng compound in 1 μl hexane, adult females, combined runs
  Preference (%): 79.8%
[1]; 2 ng compound in 1 μl hexane, adult females, combined runs
  Preference (%): 60.3%
[1]; 0.002-2 ng (Table 1) or 0.1 ng (Example 2)
  attractant effect (in words): strong attractant

## C=C(C)C(CC=C(C)C)COC(C)=O (stereo not shown) [lavandulyl acetate, reference compound]
[1]; doses of 0.1 ng, 1 ng, 10 ng, 100 ng and 1000 ng
  attractant effect (in words): no attractant effect

## C=C(C)C(CC=C(C)C)COC(=O)CCCC (stereo not shown) [lavandulyl valerate]
[1]; [2]
  Preference (%): 79.2%
